# Measurements published in patent publication US8188078B2 (Sanofi-Aventis, priority 2007, dated 2012).
# Columns and labels:
# c-MET = biological target: T1, c-MET (Homo sapiens, UniProt P08581); assay: Test A: HTRF Met test in 96-well format; format: biochemical
# T1 construct: The recombinant DNA His-Tev-MET (956-1390) in pFastBac(Invitrogen); His (N, cleaved yes); Tev (TEV protease site) (N, cleaved yes); made in house; host or cells: SF21 insect cells (baculovirus, pFastBac)
# Method in brief: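 Percent inhibition was calculated from the HTRF 665/620 ratio, using Eu-cryptate anti-phosphotyrosine PT66 plus streptavidin-XL added with EDTA and read after 2 h. The reaction ran 10 min at room temperature: 5 nM tag-cleaved MET (956–1390), 10 µM ATP, 1 µg/ml poly-GAT, and compound from 0.17 nM to 10 µM in 3% DMSO.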
# RON = RON (Homo sapiens, UniProt Q04912); assay: Test B: HTRF RON test in 96-well format; format: biochemical
# Method in brief: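 RON 5 nM pre-incubated 30 min at RT with compound (0.17 nM–10 μM final, 3% DMSO) in MOPS 10 mM pH 7, DTT, Tween 20. Reaction with biotinylated poly-(GAT) 1 μg/ml, ATP 10 μM, MgCl2 5 mM, 30 min RT. Eu-anti-pTyr/streptavidin-XL665 HTRF, 665/620 ratio gives % inhibition, IC50.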
# T1 sequence (P08581 956-1390): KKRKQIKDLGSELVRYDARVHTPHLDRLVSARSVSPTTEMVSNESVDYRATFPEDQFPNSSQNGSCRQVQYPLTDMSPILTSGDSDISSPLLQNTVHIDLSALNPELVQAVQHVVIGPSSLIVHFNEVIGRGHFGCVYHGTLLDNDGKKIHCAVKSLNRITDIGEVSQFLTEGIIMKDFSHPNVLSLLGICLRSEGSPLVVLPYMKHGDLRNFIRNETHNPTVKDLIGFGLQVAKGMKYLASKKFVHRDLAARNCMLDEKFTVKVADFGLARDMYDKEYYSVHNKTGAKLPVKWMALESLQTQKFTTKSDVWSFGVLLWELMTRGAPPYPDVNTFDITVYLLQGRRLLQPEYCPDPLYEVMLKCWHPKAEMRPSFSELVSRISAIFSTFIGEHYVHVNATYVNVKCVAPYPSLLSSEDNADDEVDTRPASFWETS
# Sequence of RON (Q04912 25-1400): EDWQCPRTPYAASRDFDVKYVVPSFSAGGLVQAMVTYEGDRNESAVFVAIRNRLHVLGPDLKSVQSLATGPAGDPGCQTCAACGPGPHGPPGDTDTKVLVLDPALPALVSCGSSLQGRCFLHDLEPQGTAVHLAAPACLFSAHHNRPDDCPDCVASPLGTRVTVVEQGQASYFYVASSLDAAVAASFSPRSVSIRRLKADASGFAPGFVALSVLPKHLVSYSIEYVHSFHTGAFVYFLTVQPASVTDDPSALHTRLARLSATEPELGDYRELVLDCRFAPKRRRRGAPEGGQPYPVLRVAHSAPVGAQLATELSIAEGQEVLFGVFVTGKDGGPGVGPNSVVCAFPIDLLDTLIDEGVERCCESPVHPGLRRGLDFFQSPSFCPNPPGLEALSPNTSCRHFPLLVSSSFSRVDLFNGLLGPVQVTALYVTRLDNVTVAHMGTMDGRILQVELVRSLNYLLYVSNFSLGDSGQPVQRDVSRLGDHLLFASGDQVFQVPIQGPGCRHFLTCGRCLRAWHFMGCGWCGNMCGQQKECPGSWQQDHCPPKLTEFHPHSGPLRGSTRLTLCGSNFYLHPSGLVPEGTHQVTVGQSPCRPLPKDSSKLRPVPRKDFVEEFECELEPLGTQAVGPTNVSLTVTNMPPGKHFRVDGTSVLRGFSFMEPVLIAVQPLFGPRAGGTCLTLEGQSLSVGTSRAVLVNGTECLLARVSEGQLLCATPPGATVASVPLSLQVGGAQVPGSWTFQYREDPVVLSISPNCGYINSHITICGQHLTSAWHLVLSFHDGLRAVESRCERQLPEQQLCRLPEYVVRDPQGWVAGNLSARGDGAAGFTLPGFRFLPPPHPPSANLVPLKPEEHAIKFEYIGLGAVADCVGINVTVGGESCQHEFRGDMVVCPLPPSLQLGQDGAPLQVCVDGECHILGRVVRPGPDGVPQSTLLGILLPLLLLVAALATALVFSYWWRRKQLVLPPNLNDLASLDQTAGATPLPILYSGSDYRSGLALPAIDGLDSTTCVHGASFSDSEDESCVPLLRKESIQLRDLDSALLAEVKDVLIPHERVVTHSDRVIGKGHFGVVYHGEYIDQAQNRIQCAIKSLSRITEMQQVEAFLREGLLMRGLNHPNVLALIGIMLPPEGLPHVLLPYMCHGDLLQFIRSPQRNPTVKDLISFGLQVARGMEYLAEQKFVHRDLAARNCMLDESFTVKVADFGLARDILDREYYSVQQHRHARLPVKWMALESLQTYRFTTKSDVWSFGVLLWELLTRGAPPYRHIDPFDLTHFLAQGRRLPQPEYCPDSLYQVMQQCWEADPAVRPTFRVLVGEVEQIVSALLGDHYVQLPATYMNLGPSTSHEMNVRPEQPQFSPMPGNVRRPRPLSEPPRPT
IC50 (c-MET),IC50 (RON),Molecule
< 100 nM,< 500 nM,"CC(Oc1cc2sc(NC(=O)NCCN3CCN(C)CC3)nc2cc1F)c1c(F)ccc(Cl)c1Cl (single isomer, unassigned) [Example 116, 1-{6-[(1R*)-1-(2,3-dichloro-6-fluorophenyl)ethoxy]-5-fluoro-1,3-benzothiazol-2-yl}-3-[2-(4-methylpiperazin-1-yl)ethyl]urea]"
< 100 nM,500 to 10000 nM,"CC(Oc1cc2sc(NC(=O)NCC(=O)N3CCN(C)CC3)nc2cc1F)c1c(Cl)ccc(F)c1Cl (centres unmarked) [Example 129, 1-{6-[1-(2,6-dichloro-3-fluorophenyl)ethoxy]-5-fluoro-1,3-benzothiazol-2-yl}-3-[2-(4-methylpiperazin-1-yl)-2-oxoethyl]urea]"
< 100 nM,< 500 nM,"CC(Oc1cc2sc(NC(=O)NCCN3CCOCC3)nc2cc1F)c1c(F)ccc(Cl)c1Cl (single isomer, unassigned) [Example 112, 1-{6-[(1R*)-1-(2,3-dichloro-6-fluorophenyl)ethoxy]-5-fluoro-1,3-benzothiazol-2-yl}-3-[2-(morpholin-4-yl)ethyl]urea]"
< 100 nM,< 500 nM,"CC(Oc1ccc2nc(NC(=O)NCCN3CCOCC3)sc2c1)c1c(F)ccc(Cl)c1Cl (centres unmarked) [Example 61, 1-{6-[1-(2,3-dichloro-6-fluorophenyl)ethoxy]-1,3-benzothiazol-2-yl}-3-(2-morpholin-4-ylethyl)urea]"
< 100 nM,500 to 10000 nM,"CC(Oc1ccc2nc(NC(=O)NCCN3CCOCC3)sc2c1)c1c(F)ccc(F)c1F (centres unmarked) [Example 60, 1-(2-morpholin-4-ylethyl)-3-{6-[1-(2,3,6-trifluorophenyl)ethoxy]-1,3-benzothiazol-2-yl}urea]"
< 100 nM,500 to 10000 nM,"CC(Oc1ccc2nc(NC(=O)NCc3cccnc3)sc2c1)c1c(Cl)ccc(F)c1Cl (centres unmarked) [Example 59, 1-{6-[1-(2,6-dichloro-3-fluorophenyl)ethoxy]-1,3-benzothiazol-2-yl}-3-(pyridin-3-ylmethyl)urea]"
< 100 nM,500 to 10000 nM,"CC(Oc1ccc2nc(NC(=O)NCCN3CCCCC3)sc2c1)c1c(Cl)ccc(F)c1Cl (centres unmarked) [Example 50, 1-{6-[1-(2,6-dichloro-3-fluorophenyl)ethoxy]-1,3-benzothiazol-2-yl}-3-(2-piperidin-1-ylethyl)urea]"
< 100 nM,< 500 nM,"CC(Oc1ccc2nc(NC(=O)NCCCN(C)C)sc2c1)c1c(Cl)ccc(F)c1Cl (centres unmarked) [Example 43, 1-{6-[1-(2,6-dichloro-3-fluorophenyl)ethoxy]-1,3-benzothiazol-2-yl}-3-[3-(dimethylamino)propyl]urea]"
< 100 nM,500 to 10000 nM,"Cc1ccc(F)c(C(C)Oc2ccc3nc(NC(=O)NCCN4CCOCC4)sc3c2)c1F (centres unmarked) [Example 123, 1-{6-[1-(2,6-difluoro-3-methylphenyl)ethoxy]-1,3-benzothiazol-2-yl}-3-[2-(morpholin-4-yl)ethyl]urea]"
< 100 nM,500 to 10000 nM,"CC(Oc1ccc2nc(NC(=O)NCCN3CCCCCC3)sc2c1)c1c(Cl)ccc(F)c1Cl (centres unmarked) [Example 54, 1-(2-azepan-1-ylethyl)-3-{6-[1-(2,6-dichloro-3-fluorophenyl)ethoxy]-1,3-benzothiazol-2-yl}urea]"
< 100 nM,< 500 nM,"CC(Oc1ccc2nc(NC(=O)NCCC3CCCN3C)sc2c1)c1c(F)ccc(Cl)c1Cl (centres unmarked) [Example 110, 1-{6-[1-(2,3-dichloro-6-fluorophenyl)ethoxy]-1,3-benzothiazol-2-yl}-3-[2-(1-methylpyrrolidin-2-yl)ethyl]urea]"
< 100 nM,500 to 10000 nM,"CC(Oc1cc2sc(NC(=O)NCCCN)nc2cc1F)c1c(Cl)ccc(F)c1Cl (centres unmarked) [Example 128, 1-(3-aminopropyl)-3-{6-[1-(2,6-dichloro-3-fluorophenyl)ethoxy]-5-fluoro-1,3-benzothiazol-2-yl}urea]"
< 100 nM,< 500 nM,"COCCCNC(=O)Nc1nc2cc(F)c(OC(C)c3c(Cl)ccc(F)c3Cl)cc2s1 (centres unmarked) [Example 104, 1-{6-[1-(2,6-dichloro-3-fluorophenyl)ethoxy]-5-fluoro-1,3-benzothiazol-2-yl}-3-(3-methoxypropyl)urea]"
< 100 nM,500 to 10000 nM,"CC(Oc1cc2sc(NC(=O)NCCOCC3CC3)nc2cc1F)c1c(Cl)ccc(F)c1Cl (centres unmarked) [Example 103, 1-[2-(cyclopropylmethoxy)ethyl]-3-{6-[1-(2,6-dichloro-3-fluorophenyl)ethoxy]-5-fluoro-1,3-benzothiazol-2-yl}urea]"
< 100 nM,< 500 nM,"CC(Oc1ccc2nc(NC(=O)NCCN3CCN(C)CC3)sc2c1)c1c(Cl)ccc(F)c1Cl (centres unmarked) [Example 55, 1-{6-[1-(2,6-dichloro-3-fluorophenyl)ethoxy]-1,3-benzothiazol-2-yl}-3-[2-(4-methylpiperazin-1-yl)ethyl]urea]"
< 100 nM,< 500 nM,"CCN1CCN(CCNC(=O)Nc2nc3cc(F)c(OC(C)c4c(Cl)ccc(F)c4Cl)cc3s2)CC1 (single isomer, unassigned) [Example 101, 1-{6-[(1R*)-1-(2,6-dichloro-3-fluorophenyl)ethoxy]-5-fluoro-1,3-benzothiazol-2-yl}-3-[2-(4-ethylpiperazin-1-yl)ethyl]urea]"

# Continued, molecule first:
Molecule,IC50 (c-MET),IC50 (RON)
"{6-[1-(2,6-dichloro-3-fluorophenyl)ethoxy]-5-fluoro-1,3-benzothiazol-2-yl}2-(pyrrolidin-1-yl)ethyl carbamate [Example 73]",< 100 nM,500 to 10000 nM
"CC(Oc1ccc2nc(NC(=O)NCCN3CCOCC3)[nH]c2c1)c1cc(F)ccc1Cl (centres unmarked) [Example 3, 1-{6-[1-(2-chloro-5-fluorophenyl)ethoxy]-1H-benzimidazol-2-yl}-3-(2-morpholin-4-ylethyl)urea]",< 100 nM,500 to 10000 nM
"Cc1ccc(F)c(C(C)Oc2ccc3nc(NC(=O)NCCN4CCOCC4)sc3c2)c1Cl (centres unmarked) [Example 28, 1-{6-[1-(2-chloro-6-fluoro-3-methylphenyl)ethoxy]-1,3-benzothiazol-2-yl}-3-(2-morpholin-4-ylethyl)urea]",< 100 nM,500 to 10000 nM
"CC(Oc1ccc2nc(NC(=O)NCCCN3CCOCC3)sc2c1)c1c(Cl)ccc(F)c1Cl (centres unmarked) [Example 42, 1-{6-[1-(2,6-dichloro-3-fluorophenyl)ethoxy]-1,3-benzothiazol-2-yl}-3-(3-morpholin-4-ylpropyl)urea]",< 100 nM,500 to 10000 nM
CCN(CC)CCCOC(=O)Nc1nc2cc(F)c(OC(C)c3c(Cl)ccc(F)c3Cl)cc2s1 (centres unmarked) [Example 70],< 100 nM,500 to 10000 nM
"CC(Oc1ccc2nc(NC(=O)NCCCn3cccc3)sc2c1)c1c(Cl)ccc(F)c1Cl (centres unmarked) [Example 40, 1-{6-[1-(2,6-dichloro-3-fluorophenyl)ethoxy]-1,3-benzothiazol-2-yl}-3-[3-(1H-pyrrol-1-yl)propyl]urea]",< 100 nM,500 to 10000 nM
"CC(Oc1cc2sc(NC(=O)NCCN3CCOCC3)nc2cc1F)c1c(Cl)ccc(F)c1Cl (centres unmarked) [Example 31, 1-{6-[1-(2,6-dichloro-3-fluorophenyl)ethoxy]-5-fluoro-1,3-benzothiazol-2-yl}-3-(2-morpholin-4-ylethyl)urea]",< 100 nM,< 500 nM
"CC(Oc1ccc2nc(NC(=O)NCCN3CCOCC3)sc2c1)c1ccccc1C(F)(F)F (centres unmarked) [Example 19, 1-(2-morpholin-4-ylethyl)-3-(6-{1-[2-(trifluoromethyl)phenyl]ethoxy}-1,3-benzothiazol-2-yl)urea]",< 100 nM,500 to 10000 nM
"O=C(NCCN1CCOCC1)Nc1nc2ccc(OCc3c(Cl)cccc3Cl)cc2s1 [Example 10, 1-{6-[(2,6-dichlorobenzyl)oxy]-1,3-benzothiazol-2-yl}-3-(2-morpholin-4-ylethyl)urea]",< 100 nM,500 to 10000 nM
"CC(Oc1ccc2nc(NC(=O)NCCN3CCOCC3)[nH]c2c1)c1c(Cl)cccc1Cl (centres unmarked) [Example 2, 1-{6-[1-(2,6-dichlorophenyl)ethoxy]-1H-benzimidazol-2-yl}-3-(2-morpholin-4-ylethyl)urea]",< 100 nM,500 to 10000 nM
"CC(Oc1ccc2nc(NC(=O)NCCN3CCC(Cc4ccccc4)CC3)sc2c1)c1c(Cl)ccc(F)c1Cl (centres unmarked) [Example 34, 1-[2-(4-benzylpiperidin-1-yl)ethyl]-3-{6-[1-(2,6-dichloro-3-fluorophenyl)ethoxy]-1,3-benzothiazol-2-yl}urea]",< 100 nM,500 to 10000 nM
"CC(Oc1cc2[nH]c(NC(=O)NCCN3CCOCC3)nc2cc1F)c1c(Cl)cccc1Cl (centres unmarked) [Example 5, 1-{6-[1-(2,6-dichlorophenyl)ethoxy]-5-fluoro-1H-benzimidazol-2-yl}-3-(2-morpholin-4-ylethyl)urea]",< 100 nM,< 500 nM
